Results on one compound are retold here after patent US11926595B1, “2-(2-ethoxyethoxy)-6-(4-hydroxyphenyl)-4-(4-methylphenyl)nicotinonitrile as an antimicrobial compound” (KING FAISAL UNIVERSITY, priority 2023, dated 2024).

The test system of one data set is Pseudomonas aeruginosa. The experiment in a line: Antimicrobial screening by agar dilution, Pseudomonas aeruginosa. The data set is classed as cell-based. Conditions: after 10, 20, 40 and 60 minutes at all dilutions 1:100, 1:200, 1:400, 1:800. As to the method:
(§1) The antibacterial properties of the synthesized compound 2-(2-ethoxyethoxy)-6-(4-hydroxyphenyl)-4-(4-methylphenyl)nicotinonitrile were studied by the method of agar dilution. Test solutions of each compound was prepared in concentration of 1% using dimethylformamide as a solvent then they are diluted in physiological solution to obtain the final experimental dilutions 1: 100, 1:200, 1:400, 1:800. The effect of these substances are compared with furacillin in a controllable study. The testing microbes used were gram positive bacteria Staphylococcus aureus, gram negative bacteria Pseudomonas aeruginosa and Escherichia coli and Candida albicans fungus. The experiments used for this survey were meat-pentonlu agar (EPA) for cultivation of bacteria and Saburo environment for the fungus. Each experiment used 1 mL of test solution on each plate […]. Two drops of emulsified with microbes feel were added. All experimental samples were taken from the agar after 10, 20, 40, 60 minutes in the environment on the basis of Patrk planted. The bacteria were cultivated at a temperature of 37° C. for 1 day and the mushroom was kept in a thermostat for 2 hours at a temperature of 28° C. Then results were checked.
On the technique in general: In agar dilution, organisms are placed on agar that contains the substance at set levels.

The subject of the next data set is Candida albicans. The experiment in a line: Antimicrobial screening by agar dilution, Candida albicans. The data set is classed as cell-based. As to conditions: after 10, 20, 40 and 60 minutes at all dilutions 1:100, 1:200, 1:400, 1:800. As to the method: as §1
A further data set has as its system Escherichia coli. The experiment in a line: Antimicrobial screening by agar dilution, Escherichia coli. The data set is classed as cell-based. As to conditions: after 10, 20, 40 and 60 minutes at all dilutions 1:100, 1:200, 1:400, 1:800. As to the method:
as §1

For another data set, the system named is Staphylococcus aureus. The experiment in a line: Antimicrobial screening by agar dilution, Staphylococcus aureus. The data set is classed as cell-based. As to conditions: after 10, 20, 40 and 60 minutes at all dilutions 1:100, 1:200, 1:400, 1:800. As to the method: as §1

One may read the melting point as the temperature of the solid-liquid transition.

In the case of `CCOCCOc1nc(-c2ccc(O)cc2)cc(-c2ccc(C)cc2)c1C#N` [2-(2-ethoxyethoxy)-6-(4-hydroxyphenyl)-4-(4-methylphenyl)nicotinonitrile], the melting point was in the range of 175 to 177 °C. Also, in the data set on Pseudomonas aeruginosa, the “inhibition activity (summary in words)” value is on record as “highest inhibition activity”. Moreover, the “inhibition activity (summary in words)” value in the data set with Candida albicans is “highest inhibition activity”. The “inhibition activity (summary in words)” value in the data set with Escherichia coli was “highest inhibition activity”. Moreover, in the data set with Staphylococcus aureus, the “inhibition activity (summary in words)” value was “highest inhibition activity”.
